Measured values taken from patent publication US20190125753A1, “COMPOUNDS AND METHODS FOR INCREASING HEMATOPOIESIS” (University of Southern California, priority 2016, published 2019).

Legend:
[1] = system: lethally irradiated animals; assay: Survival after lethal dose whole body radiation; type: in vivo, mouse
Experimental: We next tested if YH250 can rescue animals from lethal dose radiation. […] However, YH250 (2 mg/Kg) administrated 24 hours post radiation rescued 50% of animals (Kaplan-Meier analysis p=0.0002).
With 8.5Gy radiation, all the animals (100%) survived in YH250 treatment group while there are only 30% animals survived in DMSO treatment group (p=0.0016, FIG. 21C). […] In principle, to optimize radiation remediation therapy, it should be advantageous to first (a) symmetrically expand the remaining viable stem cell pool (either HSC or ISC), using a method to enhance symmetric non-differentiative proliferation, i.e., by blocking the p300/catenin interaction thereby enhancing CBP/catenin signaling and (b) subsequently induce the differentiation of the stem cell pool via asymmetric divisions to enhance tissue repair and regeneration as rapidly as possible using a CBP/catenin antagonist. We therefore decided to test sequential administration of the p300/catenin antagonist YH250, followed by subsequent administration of the CBP/catenin antagonist ICG-001. An additional potential therapeutic benefit utilizing a CBP/catenin antagonist would be protection against fibrosis, which is a common chronic complication associated with radiation damage. […] We thus treated mice with either vehicle, YH250 (single 2 mg/Kg s.c., injection at 24 h post irradiation), ICG-001 (single 50 mg/Kg s.c., injection at 24 h post irradiation) or the combination of YH250/ICG-001, with YH250 (2 mg/Kg) given 24 h post irradiation followed by ICG-001 (50 mg/Kg) injection for 5 consecutive days starting at 48 h post-irradiation. After irradiation and the corresponding treatments, no special care was provided. The life-span after irradiation was observed on a daily basis and recorded.

[2] = target: T1, p300/γ-catenin interaction (Mus musculus, UniProt B2RWS6); assay: Co-IP of bone marrow Sca-1posit cells from treated mice (anti-p300); type: in vivo; conditions: YH250 2 mg/kg subcutaneously, 24 hrs
T1 construct: bone marrow Sca-1posit cells were isolated with Anti-Sca-1 microbeads; from tissue; host or cells: bone marrow Sca-1 positive cells of female C57/Black mice dosed in vivo
T1 sequence (B2RWS6 2-2412 limits assumed): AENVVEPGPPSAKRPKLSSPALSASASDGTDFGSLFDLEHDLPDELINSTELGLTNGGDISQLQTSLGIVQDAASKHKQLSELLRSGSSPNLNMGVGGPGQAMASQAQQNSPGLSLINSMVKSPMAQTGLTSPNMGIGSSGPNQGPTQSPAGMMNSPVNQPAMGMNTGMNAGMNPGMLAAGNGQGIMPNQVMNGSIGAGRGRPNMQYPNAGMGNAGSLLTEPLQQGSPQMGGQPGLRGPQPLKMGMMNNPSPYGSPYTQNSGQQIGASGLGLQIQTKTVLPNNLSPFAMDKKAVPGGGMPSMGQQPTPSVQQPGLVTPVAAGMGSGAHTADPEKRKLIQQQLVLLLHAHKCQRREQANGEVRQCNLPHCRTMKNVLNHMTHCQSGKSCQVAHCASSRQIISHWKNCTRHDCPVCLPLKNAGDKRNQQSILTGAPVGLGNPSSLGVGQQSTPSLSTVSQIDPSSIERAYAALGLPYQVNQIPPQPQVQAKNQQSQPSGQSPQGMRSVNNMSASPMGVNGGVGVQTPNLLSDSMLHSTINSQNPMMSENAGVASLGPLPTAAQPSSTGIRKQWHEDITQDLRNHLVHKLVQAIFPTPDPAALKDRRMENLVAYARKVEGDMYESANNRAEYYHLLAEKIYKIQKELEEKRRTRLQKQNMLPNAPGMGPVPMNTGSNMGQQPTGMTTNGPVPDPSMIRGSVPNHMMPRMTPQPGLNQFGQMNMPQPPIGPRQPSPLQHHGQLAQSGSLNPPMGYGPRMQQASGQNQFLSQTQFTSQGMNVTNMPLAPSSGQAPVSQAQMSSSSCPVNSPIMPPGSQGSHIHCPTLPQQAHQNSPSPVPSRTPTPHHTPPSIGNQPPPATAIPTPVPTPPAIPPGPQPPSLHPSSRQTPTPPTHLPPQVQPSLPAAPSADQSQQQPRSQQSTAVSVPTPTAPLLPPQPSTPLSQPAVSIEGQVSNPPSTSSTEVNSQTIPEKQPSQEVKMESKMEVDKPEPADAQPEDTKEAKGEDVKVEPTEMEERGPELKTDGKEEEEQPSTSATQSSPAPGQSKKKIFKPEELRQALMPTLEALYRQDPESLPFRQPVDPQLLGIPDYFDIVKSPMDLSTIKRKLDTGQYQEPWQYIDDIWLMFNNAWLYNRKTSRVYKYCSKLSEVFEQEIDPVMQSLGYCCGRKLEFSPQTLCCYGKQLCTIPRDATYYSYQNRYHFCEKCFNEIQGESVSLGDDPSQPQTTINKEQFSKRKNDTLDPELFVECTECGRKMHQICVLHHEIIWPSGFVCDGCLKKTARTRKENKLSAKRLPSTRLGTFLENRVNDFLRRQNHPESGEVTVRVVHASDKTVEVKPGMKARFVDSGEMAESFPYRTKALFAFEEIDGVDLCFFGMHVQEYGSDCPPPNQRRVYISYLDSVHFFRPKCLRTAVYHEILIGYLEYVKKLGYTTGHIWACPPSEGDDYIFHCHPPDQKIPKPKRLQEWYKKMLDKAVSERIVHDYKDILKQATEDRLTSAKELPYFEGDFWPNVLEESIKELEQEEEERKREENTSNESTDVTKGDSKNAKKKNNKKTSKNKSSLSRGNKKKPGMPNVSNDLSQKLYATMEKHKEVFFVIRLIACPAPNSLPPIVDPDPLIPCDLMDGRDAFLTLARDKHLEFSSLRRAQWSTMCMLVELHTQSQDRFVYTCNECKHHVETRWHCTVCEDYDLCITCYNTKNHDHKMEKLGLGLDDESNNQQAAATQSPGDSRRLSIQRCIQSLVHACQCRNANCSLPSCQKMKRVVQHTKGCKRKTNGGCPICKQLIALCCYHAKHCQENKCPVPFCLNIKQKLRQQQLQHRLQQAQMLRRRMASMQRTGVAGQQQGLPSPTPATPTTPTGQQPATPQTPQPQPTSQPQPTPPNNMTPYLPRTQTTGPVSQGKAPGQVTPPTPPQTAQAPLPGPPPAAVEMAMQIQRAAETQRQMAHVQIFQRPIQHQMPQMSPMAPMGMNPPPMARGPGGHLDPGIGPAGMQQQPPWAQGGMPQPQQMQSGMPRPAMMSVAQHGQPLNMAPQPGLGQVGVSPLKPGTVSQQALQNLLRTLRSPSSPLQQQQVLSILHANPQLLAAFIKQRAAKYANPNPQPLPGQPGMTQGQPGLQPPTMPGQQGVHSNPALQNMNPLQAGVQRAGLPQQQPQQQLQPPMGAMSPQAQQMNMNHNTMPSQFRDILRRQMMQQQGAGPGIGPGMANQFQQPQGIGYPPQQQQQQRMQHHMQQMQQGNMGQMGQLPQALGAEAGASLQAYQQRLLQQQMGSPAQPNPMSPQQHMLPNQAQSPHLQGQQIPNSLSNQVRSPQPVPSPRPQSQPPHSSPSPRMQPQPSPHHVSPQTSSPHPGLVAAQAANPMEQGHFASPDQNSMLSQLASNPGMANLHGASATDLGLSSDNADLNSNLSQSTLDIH
Experimental: YH250 was used in this study. Female C57/Black mice were administrated with either DMSO (solvent control) or YH250 (2 mg/kg) subcutaneously. 24 hrs later, bone marrow Sca-1posit cells were isolated with Anti-Sca-1 microbeads (Miltenyi Biotec, Cat#130-092-529) for co-immunoprecipitation (FIG. 4A). Cells were then lysed and incubated with either anti-CBP (A22) or anti-p300 (C20) antibodies. Then, the immunoprecipitation complex were electrophoresed and detected with antibodies to either β-catenin or γ-catenin. […] This confirms that YH250 directly disrupts the p300/catenin interaction thereby enhancing the CBP/catenin interaction in HSPCs.

mouse bone marrow cells = assay: 3-day in vitro culture of bone marrow cells, FACS; type: cell-based; conditions: 0.5 μM, 3 days, 200,000 live cells analyzed
Experimental: Mouse bone marrow cells were isolated and cultured in QBSF-58 medium with DMSO or YH250 0.5 μM (medium contains 10 ng/ml of SCF, TPO, Flt3 ligand, and IL-6) for 3 days and cells are recovered and analyzed for HSC surface markers with FACS.

cord blood CD34+ cells = assay: Cord blood CD34+ cell culture 7 days, FACS surface marker analysis; type: cell-based, human; conditions: 7th day
Experimental: A method to analyze expanded cord blood CD34+ cell phenotype using FACS is established. In this study, cord blood cells were cultured in vitro with 4GF and different concentrations of p300/-catenin antagonist such as YH250. Because the limited CD34+ cells in culture system, GFP transgenic mouse bone marrow cells were isolated and added to the cells as carrier cells in FACS analysis. The bright GFP positive carrier cells were gated out and the targeting cord blood cells were further analyzed for their surface marker. FIG. 13A depicts carrier cell only in FACS analysis.
Cord blood CD34+ cells were cultured in medium containing either 4GF or 6GF with different concentration of p300/-catenin antagonist YH250. At 7th day in culture, cells were recovered and mixed with carrier cells from GFP mice bone marrow. Antibodies to human HSC surface protein are added to the cells and human CD45posit cells were gated for FACS analysis. […] In 6GF medium, 10 μM of YH250 also gives more human CD45+CD34+ cells compared with DMSO (73.3% vs 66.2%, Table 5).

## COc1cccc(CNC(=O)N2C3CN(Cc4cc(Cl)cc(Cl)c4N(C)C)C(=O)[C@H](Cc4ccc(O)cc4)N3C(=O)CN2C)c1OC (stereo partly drawn) [YH250]
[1]; 8.5Gy
  body weight vs DMSO: less body weight drop
[1]; 8.5Gy (LD70/60), 2 mg/Kg 24 hours post radiation, DMSO 30%, p=0.0016
  animals survived: 100%
[1]; 9Gy
  body weight: less body weight drop
[1]; 9Gy (LD100/60), 2 mg/Kg 24 hours post radiation, p=0.0002
  animals rescued (survival): 50%
[1]; YH250 2 mg/Kg s.c. 24 h post irradiation, combination followed by ICG-001 50 mg/Kg 5 consecutive days from 48 h
  life-span after irradiation vs control group: significantly extended life-spans
[2]
  p300/γ-catenin interaction: inhibits p300/γ-catenin interaction
Mouse bone marrow cells
  LSK 48 − 150+ %: 16%
  LSK 135 + 34+ %: 67%
  LSK 135 + 34+ Cell#: 4263
  LSK 135 − 34+ %: 25%
  LSK 135 − 34+ Cell#: 1602
  LSK 135 − 34− %: 7%
  LSK 135 − 34− Cell#: 445
  LSK %: 16%
  LSK Cell#: 6340
  Lin-neg %: 20%
  Lin-neg Cell#: 40015
Mouse bone marrow cells; DMSO 607
  LSK 48 − 150+ Cell#: 992
Cord blood CD34+ cells; 4GF (SF6T), 1 μM, DMSO 3.9
  %34 + 38-45RA-33-: 3.5%
Cord blood CD34+ cells; 4GF (SF6T), 1 μM, DMSO 4.5
  %33-45RA-: 5.0%
Cord blood CD34+ cells; 4GF (SF6T), 1 μM, DMSO 12.2
  % CD3+: 16.0%
Cord blood CD34+ cells; 4GF (SF6T), 1 μM, DMSO 64.5
  %34 + 38-: 51.7%
Cord blood CD34+ cells; 4GF (SF6T), 1 μM, DMSO 79.1
  %34+: 64.1%
Cord blood CD34+ cells; 4GF (SF6T), 3 μM
  %33-45RA-: 5.8%
  %34+: 84%
  %34 + 38-: 65.5%
  %34 + 38-45RA-33-: 5.2%
  % CD3+: 9.5%
Cord blood CD34+ cells; 4GF (SF6T), 10 μM
  %33-45RA-: 4.9%
  %34+: 89.1%
  %34 + 38-: 65.3%
  %34 + 38-45RA-33-: 4.5%
  % CD3+: 4.5%
Cord blood CD34+ cells; 6GF (SF6T3G), 1 μM, DMSO 2.3
  %34 + 38-45RA-33-: 4.4%
Cord blood CD34+ cells; 6GF (SF6T3G), 1 μM, DMSO 2.5
  %33-45RA-: 5.8%
Cord blood CD34+ cells; 6GF (SF6T3G), 1 μM, DMSO 22.6
  % CD3+: 20.1%
Cord blood CD34+ cells; 6GF (SF6T3G), 1 μM, DMSO 56.4
  %34 + 38-: 53.9%
Cord blood CD34+ cells; 6GF (SF6T3G), 1 μM, DMSO 66.2
  %34+: 62%
Cord blood CD34+ cells; 6GF (SF6T3G), 3 μM
  %33-45RA-: 5.6%
  %34+: 66.1%
  %34 + 38-: 55.8%
  %34 + 38-45RA-33-: 4.2%
  % CD3+: 18.8%
Cord blood CD34+ cells; 6GF (SF6T3G), 10 μM
  %33-45RA-: 6.1%
  %34+: 73.3%
  %34 + 38-: 57.9%
  %34 + 38-45RA-33-: 4.2%
  % CD3+: 13.8%
